The record followed here is patent US20240336630A1, “MAP4K1 INHIBITORS” (Blueprint Medicines Corporation, priority 2021, published 2024).

The structures appear in SMILES notation.

The subject of experiment [1] is Primary T Cell (expanded CD3+ T cells). Description: T cell enhancement of cytokines: IL2 measurement (HTRF) in expanded CD3+ T cells stimulated with anti-CD3/anti-CD28. The format is cell-based. Conditions: Homo sapiens, plate-bound anti-CD3 and soluble anti-CD28, 24 h, read-out: IL-2 Primary T Cell EC50. On the procedure:
T cells are isolated from whole blood of healthy donors by immunomagnetic negative selection following manufacture's protocol (StemCell Technologies, human T cell isolation kit). Purity of isolated cells is assessed by flow cytometry and yields 95-98% CD3^+ T cells. For expansion of T cells, 1×10^6 cells/well are plated in serum free cell expansion media (ThermoFisher) containing 30U of recombinant human IL2 (R&D) and stimulated with 25 ul of CD3/CD28 beads (Invitrogen) in 24 well plates for 3-4 days. T cells are then expanded in 175 cm flasks and maintained at a cell density of 1 to 2.5×10^6 cells/ml days by addition of ⅔ of fresh media every 2-3 days. After 10-14 days, cells are frozen in BamBanker freezing media (Thermo) and stored in liquid nitrogen.
For IL2 measurement, expanded CD3^+ T cells are dispensed at 100K cells/well (cultured in X-VIVO 10 Serum-free media) and are stimulated with plate-bound anti-CD3 and soluble anti-CD28 in the presence of vehicle or compound of the disclosure at various concentrations for 24 h. As outlined in the manufacturer's protocol (Cisbio), 16 μL of conditioned media is transferred to a white 384-well low volume plate. Following a 24 h incubation with the anti-IL2 antibodies, the homogenous time resolved fluorescence (HTRF) is measured.
(Time-resolved FRET reads energy transfer from a long-lived donor to a nearby acceptor.)

A further experiment addresses T1, MAP4K1 (HPK1) (Homo sapiens, UniProt Q92918).
T1 construct: purchased Invitrogen
Put plainly: Inhibition of MAP4K1 biochemical enzymatic activity (EZReader 2 electrophoretic mobility shift). Conditions: HPK1 (Invitrogen), S6K2tide 1.5 μM, 120 min; ATP 26 μM or 1000 μM, not stated which for Table 3. An excerpt:
MAP4K1 (HPK1) and relevant off-target enzymatic activity was monitored using the Perkin Elmer electrophoretic mobility shift technology platform—the EZReader 2. […] Within the linear, steady-state phase of the kinase enzymatic reaction, the mixed pool of phosphorylated (product) and non-phosphorylated (substrate) peptides was passed through the microfluidic system of the PerkinElmer EZ Reader 2, under an applied electric potential difference. The presence of the phosphate group on the product peptide provided a difference in mass and charge between that of the substrate peptide, resulting in a separation of the substrate and product pools in the sample (Perrin et al. 2010). As the product and substrate peptide mixture passes the lasers within the instrument, these pools are detected (λex=488 nm, λem=568 nm) and resolved as separate peaks. The ratio between these peaks reflects the activity of the compound at that concentration, in that well, under those conditions.
Inhibitors were dissolved in 100% DMSO at a stock concentration of 10 mM. A 100×, 10-point, 4-fold serial dilution of each inhibitor was created in 100% DMSO either manually or on a Hamilton STAR liquid handler, starting at a relevant concentration, usually 1 mM. A volume of 0.130 μL of each concentration was transferred to the relevant wells of a 384-well plate (Greiner 781 201) in duplicate using a TTPLabtech Mosquito nano-litre dispenser. Using a Multidrop Combi, the remaining constituents of the kinase reaction were added to the 130 nL of dosed compound as follows (see table below for final reaction details):
Enzyme activity assays at the ^APPKM for ATP or 1 mM ATP: In each well of a 384-well plate, 0.1-15 nM of untreated enzyme was incubated in a total of 13 μL of buffer (100 mM HEPES pH 7.5, 0.015% Brij 35, 10 mM MgCl2, 1 mM DTT) with 1.5 μM fluorescent peptide and 20-1000 μM ATP, at 25° C., for 60-180 minutes in the presence or absence of a dosed concentration series of compound (1% DMSO final concentration). The kinase reactions were stopped by the addition of 70 μl of Stop buffer (100 mM HEPES pH 7.5, 0.015% Brij 35, 35 mM EDTA and 0.2% of Coating Reagent 3 (Caliper Lifesciences)). The plates were read on a Caliper EZReader 2 as described above.
Background: Mobility shift assays separate free from complexed probe on a gel.

T1 sequence (Q92918 whole entry): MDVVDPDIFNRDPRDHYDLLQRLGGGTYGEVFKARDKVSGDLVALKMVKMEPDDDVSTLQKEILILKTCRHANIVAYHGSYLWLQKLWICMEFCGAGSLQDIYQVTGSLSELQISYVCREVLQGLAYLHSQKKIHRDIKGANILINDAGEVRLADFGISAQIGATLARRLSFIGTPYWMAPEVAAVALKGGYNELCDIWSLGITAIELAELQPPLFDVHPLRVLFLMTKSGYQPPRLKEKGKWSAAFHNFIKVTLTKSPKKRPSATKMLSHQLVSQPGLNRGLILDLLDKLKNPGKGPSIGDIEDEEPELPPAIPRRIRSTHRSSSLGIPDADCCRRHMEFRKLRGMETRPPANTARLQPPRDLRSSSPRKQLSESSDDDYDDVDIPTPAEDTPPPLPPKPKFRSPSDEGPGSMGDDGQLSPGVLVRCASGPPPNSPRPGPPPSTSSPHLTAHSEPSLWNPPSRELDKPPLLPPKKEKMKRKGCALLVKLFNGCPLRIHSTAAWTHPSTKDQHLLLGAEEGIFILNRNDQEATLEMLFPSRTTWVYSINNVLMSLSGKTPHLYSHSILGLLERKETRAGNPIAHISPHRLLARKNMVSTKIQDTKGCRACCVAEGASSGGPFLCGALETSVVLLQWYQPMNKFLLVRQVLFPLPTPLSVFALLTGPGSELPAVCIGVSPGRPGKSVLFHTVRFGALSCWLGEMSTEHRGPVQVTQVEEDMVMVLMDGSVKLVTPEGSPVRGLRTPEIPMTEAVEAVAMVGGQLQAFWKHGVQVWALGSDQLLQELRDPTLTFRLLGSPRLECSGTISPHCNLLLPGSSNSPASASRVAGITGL

With `CC[C@](C)(O)c1cnc(OC2CC2)c2cnc(Nc3ccc4c(n3)C3(CC3)[C@@H](C)OC4=O)cc12` (single isomer, unassigned) [Compound 27], the EC50 (in general, the concentration needed to bring the measured effect to its halfway point) in experiment [1] worked out at 42 nM. Further, the IC50 (usually the concentration needed to halve the response being measured) on MAP4K1 (HPK1) is 1.7 nM.
For `CC[C@@](C)(O)c1cnc(OC2CC2)c2cnc(Nc3ccc4c(n3)[C@@H](C)C(C)(C)OC4=O)cc12` (single isomer, unassigned) [Compound 31], in that order: 47 nM and 0.42 nM.
With `CC[C@](C)(O)c1cnc(OC2CC2)c2cnc(Nc3ccc4c(n3)C3(CC3)C(C)(C)OC4=O)cc12` (single isomer, unassigned) [Compound 40], in experiment [1], the EC50 turned out to be 169 nM. Moreover, the IC50 at MAP4K1 (HPK1) was determined as 2.09 nM.
Take `CC[C@@](C)(O)c1cnc(O[C@H]2C[C@@H](S(C)(=O)=O)C2)c2cnc(Nc3ccc4c(n3)[C@@H](C)[C@H](C)OC4=O)cc12` (single isomer, unassigned) [Compound 61]: in experiment [1], the EC50 is 23 nM. At MAP4K1 (HPK1), the IC50 was 0.39 nM.
With `CC[C@](C)(O)c1cnc(OC2CC2)c2cnc(Nc3ccc4c(n3)C(C)(C)[C@@H](C)OC4=O)cc12` [Compound 34], the EC50 in experiment [1] was 132 nM. Besides, the IC50 at MAP4K1 (HPK1) was determined as 2.53 nM.
In the same order, the values of `C[C@@H]1c2nc(Nc3cc4c(C(C)(C)O)cnc(O[C@H]5C[C@@H](S(C)(=O)=O)C5)c4cn3)ccc2C(=O)OC1(C)C` [Compound 60] are 65 nM and 0.29 nM.
